From US20110053773A1, “METHODS OF IMPROVING NUTRITIONAL VALUE OF PLANTS” (UNIVERSITY OF TENNESSEE RESEARCH FOUNDATION, priority 2009, published 2011)

How the values were obtained:
kale 'Red Russian' = experiment: Visual injury of kale after insecticide, fungicide, PGRs, safeners (Example 4)
Protocol: Greenhouse and laboratory studies were conducted to ascertain the tolerance and nutritional quality differences following postemergence applications of the insecticide chlorpyrifos, the fungicide chlorothalonil, the PGRs mepiquat-chloride and paclobutrazol, and the safeners napthalic anhydride and isoxadifen-ethyl on kale ‘Red Russian’ and basil ‘Genovese’. Visual injury was rated based on general phytotoxicity, chlorosis, and visual stunting and each measurement was based on a percent scale from 0 to 100 where 0 equals no visual response and 100 equals complete plant death. Kale and basil were both harvested approximately 4 weeks after treatments and plants were pooled over replicates for content analysis of crude protein, crude amino acid content, acid detergent fiber, neutral detergent fiber, total fatty acids, and/or key mineral content (including Na, Ca, P, Mg, K, Fe, Mn, Zn, and Cu). In addition, the amounts of key individual amino acids (aspartic acid, threonine, glutamic acid, proline, glycine, cysteine, valine, leucine, isoleucine, methionine, and lysine) and composite classifications of fatty acid (saturated fatty acids, monounsaturated fatty acids, polyunsaturated fatty acids) were also analyzed from these sub-samples for kale (Tables 10-14).

basil 'Genovese' [1] = experiment: Visual injury of basil after insecticide, fungicide, PGRs, safeners (Example 4)
How it was run: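 Postemergence greenhouse applications of chlorpyrifos, chlorothalonil, mepiquat-chloride, paclobutrazol, napthalic anhydride or isoxadifen-ethyl. Injury rated visually for phytotoxicity, chlorosis and stunting on a 0–100% scale (0 = no response, 100 = plant death). Plants harvested ~4 weeks after treatment, pooled over replicates for nutrient content analysis.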

basil 'Genovese' [2] = experiment: Content analysis of basil: protein, minerals (Example 4, Tables 10-11); format: in vivo; conditions: 28 DA-A
How it was run: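 Plants received postemergence sprays of one insecticide, one fungicide, two PGRs or two safeners in the greenhouse. About 4 weeks later they were harvested, and replicates were pooled for laboratory content analysis. Injury was rated visually on a 0–100% scale.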

[3] = 7 DA-A, rates g ai/ha: chlropyrifos 1120, chlorothalonil 2630, paclobutrazol 3.23, mepiquat-chloride 12.3, + NIS 0.25 % v/v
[4] = 7 DA-A, rates g ai/ha: chlropyrifos 3370, chlorothalonil 7900, paclobutrazol 9.7, mepiquat-chloride 37, + NIS 0.25 % v/v
[5] = 14 DA-A, rates g ai/ha: chlropyrifos 1120, chlorothalonil 2630, paclobutrazol 3.23, mepiquat-chloride 12.3, + NIS 0.25 % v/v
[6] = 14 DA-A, rates g ai/ha: chlropyrifos 3370, chlorothalonil 7900, paclobutrazol 9.7, mepiquat-chloride 37, + NIS 0.25 % v/v
[7] = 28 DA-A, rates g ai/ha: chlropyrifos 1120, chlorothalonil 2630, paclobutrazol 3.23, mepiquat-chloride 12.3, + NIS 0.25 % v/v
[8] = 28 DA-A, rates g ai/ha: chlropyrifos 3370, chlorothalonil 7900, paclobutrazol 9.7, mepiquat-chloride 37, + NIS 0.25 % v/v
[9] = 7 DA-A, rates g ai/ha: chlropyrifos 1120, chlorothalonil 2630, paclobutrazol 3.23, mepiquat-chloride 12.3, Isoxadifen 8, Napthalic anhydride 264, + NIS 0.25 % v/v
[10] = 7 DA-A, rates g ai/ha: chlropyrifos 3370, chlorothalonil 7900, paclobutrazol 9.7, mepiquat-chloride 37, Isoxadifen 16, Napthalic anhydride 527, + NIS 0.25 % v/v
[11] = 14 DA-A, rates g ai/ha: chlropyrifos 1120, chlorothalonil 2630, paclobutrazol 3.23, mepiquat-chloride 12.3, Isoxadifen 8, Napthalic anhydride 264, + NIS 0.25 % v/v
[12] = 14 DA-A, rates g ai/ha: chlropyrifos 3370, chlorothalonil 7900, paclobutrazol 9.7, mepiquat-chloride 37, Isoxadifen 16, Napthalic anhydride 527, + NIS 0.25 % v/v
[13] = 28 DA-A, rates g ai/ha: chlropyrifos 1120, chlorothalonil 2630, paclobutrazol 3.23, mepiquat-chloride 12.3, Isoxadifen 8, Napthalic anhydride 264, + NIS 0.25 % v/v
[14] = 28 DA-A, rates g ai/ha: chlropyrifos 3370, chlorothalonil 7900, paclobutrazol 9.7, mepiquat-chloride 37, Isoxadifen 16, Napthalic anhydride 527, + NIS 0.25 % v/v
[15] = rates g ai/ha: chlroprifos 3370, chlorothalonil 7900, paclobutrazol 9.7, mepiquat-chloride 37, Isoxadifen 16, Napthalic anhydride 527, + NIS 0.25 % v/v
[16] = rates g ai/ha: chlropyrifos 1120, chlorothalonil 2630, paclobutrazol 3.23, mepiquat-chloride 12.3, Isoxadifen 8, Napthalic anhydride 264, + NIS 0.25 % v/v

## N#Cc1c(Cl)c(Cl)c(Cl)c(C#N)c1Cl [chlorothalonil]
Kale 'Red Russian'; [3]
  Phytotoxicity Chlorosis: 0%
  Phytotoxicity General: 15%
  Phytotoxicity Stunting: 0%
Kale 'Red Russian'; [4]
  Phytotoxicity Chlorosis: 0%
  Phytotoxicity General: 9%
  Phytotoxicity Stunting: 1%
Kale 'Red Russian'; [5]
  Phytotoxicity Chlorosis: 10%
  Phytotoxicity General: 0%
  Phytotoxicity Stunting: 5%
Kale 'Red Russian'; [6]
  Phytotoxicity Chlorosis: 6%
  Phytotoxicity General: 1%
  Phytotoxicity Stunting: 5%
Kale 'Red Russian'; [7]
  Phytotoxicity Chlorosis: 3%
  Phytotoxicity General: 5%
  Phytotoxicity Stunting: 6%
Kale 'Red Russian'; [8]
  Phytotoxicity Chlorosis: 0%
  Phytotoxicity General: 3%
  Phytotoxicity Stunting: 8%
Basil 'Genovese' [1]; [9]
  Phytotoxicity Chlorosis: 5%
  Phytotoxicity General: 5%
  Phytotoxicity Stunting: 5%
Basil 'Genovese' [1]; [10]
  Phytotoxicity Chlorosis: 15%
  Phytotoxicity General: 3%
  Phytotoxicity Stunting: 5%
Basil 'Genovese' [1]; [11]
  Phytotoxicity Chlorosis: 5%
  Phytotoxicity General: 0%
  Phytotoxicity Stunting: 8%
Basil 'Genovese' [1]; [12]
  Phytotoxicity Chlorosis: 5%
  Phytotoxicity General: 2%
  Phytotoxicity Stunting: 7%
Basil 'Genovese' [1]; [13]
  Phytotoxicity Chlorosis: 5%
  Phytotoxicity General: 10%
  Phytotoxicity Stunting: 7%
Basil 'Genovese' [1]; [14]
  Phytotoxicity Chlorosis: 10%
  Phytotoxicity General: 3%
  Phytotoxicity Stunting: 10%
Basil 'Genovese' [2]; [15]
  ADF, Percent Increase Over the Untreated Check (on a % dry matter basis): 1 % check
  Calcium, Percent Increase Over the Untreated Check (on a % dry matter basis): −15 % check
  Copper, Percent Increase Over the Untreated Check (on a % dry matter basis): −17 % check
  Iron, Percent Increase Over the Untreated Check (on a % dry matter basis): 25 % check
  Magnesium, Percent Increase Over the Untreated Check (on a % dry matter basis): −6 % check
  Manganese, Percent Increase Over the Untreated Check (on a % dry matter basis): −8 % check
  NDF, Percent Increase Over the Untreated Check (on a % dry matter basis): 12 % check
  Phosphorous, Percent Increase Over the Untreated Check (on a % dry matter basis): 0 % check
  Potassium, Percent Increase Over the Untreated Check (on a % dry matter basis): 7 % check
  Protein, Percent Increase Over the Untreated Check (on a % dry matter basis): 3 % check
  Sodium, Percent Increase Over the Untreated Check (on a % dry matter basis): 50 % check
  Soluble protein, Percent Increase Over the Untreated Check (on a % dry matter basis): 42 % check
  Zinc, Percent Increase Over the Untreated Check (on a % dry matter basis): −6 % check
Basil 'Genovese' [2]; [16]
  ADF, Percent Increase Over the Untreated Check (on a % dry matter basis): 1 % check
  Calcium, Percent Increase Over the Untreated Check (on a % dry matter basis): 0 % check
  Copper, Percent Increase Over the Untreated Check (on a % dry matter basis): −17 % check
  Iron, Percent Increase Over the Untreated Check (on a % dry matter basis): 37 % check
  Magnesium, Percent Increase Over the Untreated Check (on a % dry matter basis): 3 % check
  Manganese, Percent Increase Over the Untreated Check (on a % dry matter basis): 43 % check
  NDF, Percent Increase Over the Untreated Check (on a % dry matter basis): 6 % check
  Phosphorous, Percent Increase Over the Untreated Check (on a % dry matter basis): 9 % check
  Potassium, Percent Increase Over the Untreated Check (on a % dry matter basis): 4 % check
